Consider 5 molecules from US6916803B2, “3-(Heteroaryl acetamido)-2-oxo-azetidine-1-sulfonic acids derivatives as antibacterial agents” (Pantherix, Ltd., priority 2000, dated 2005).

What all share (assay): MIC, standard microbroth dilution method (NCCLS)
Common to all, as to assay type: cell-based
In general terms: Dilution methods test growth across graded concentrations, often in twofold steps.

For one experiment, the system named is C. freundii K 500. The note with it: Citrobacter freundii, K500. Here is the method: (§1) The compounds of the present invention were tested for minimum inhibitory concentration (MIC) against the bacteria listed in Table-1 according to the standard microbroth dilution method as described in NCCLS document. The minimum inhibitory concentration is expressed in μg/ml.

A further experiment relates to K pneumoniae K-1150. The method, then:
as §1

A further experiment has as its system M Morganii K 1250. The method, then:
as §1

Another experiment deals with E. coli TEM-2. To be noted: Escherichia coli, TEM2. The method, then:
as §1

A further experiment deals with E. cloaacae S 480-2. Here is the method:
as §1

The next experiment concerns P. aeruginosa S 1598. To be noted: Pseudomonas aeruginosa, S1598. Here is the method: as §1
The subject of the next experiment is P. aeruginosa PD 2721. To be noted: Pseudomonas aeruginosa, PD2721. The method, then: as §1
The subject of a further experiment is P. aeruginosa CL 1267. The note with it: Pseudomonas aeruginosa, CL1267. Here is the method: as §1

Values after ≈ are worked out from the molar mass of the structure shown. Where two headings read alike, the source gives them in different places.

For the molecule `C[C@H]1[C@H](NC(=O)/C(=N\OC(C)(C)C(=O)O)c2csc(N)n2)C(=O)N1S(=O)(=O)O` [Aztreonam, reference compound], the MIC – broadly, the smallest concentration in the dilution series that meets the test's criterion for growth inhibition – stood at 0.13 µg/mL (≈ 0.299 µM) against C. freundii K 500; 0.06 µg/mL (≈ 0.138 µM) against K pneumoniae K-1150; 0.06 µg/mL (≈ 0.138 µM) against M Morganii K 1250; 0.06 µg/mL (≈ 0.138 µM) in the experiment with E. coli TEM-2 (E. coli TEM-2, read-out: MIC); 0.13 µg/mL (≈ 0.299 µM) in the experiment on E. cloaacae S 480-2; 32 µg/mL (≈ 73.5 µM) with P. aeruginosa S 1598. In the experiment with P. aeruginosa PD 2721, 64 µg/mL (≈ 147 µM) was the least that counted as inhibitory (MIC).

On to `NC(=O)OC[C@@H]1[C@H](NC(=O)/C(=N\OCC(=O)O)c2csc(N)n2)C(=O)N1S(=O)(=O)O` [Carumonam, reference compound], for which the MIC in the experiment on C. freundii K 500 is 0.06 µg/mL (≈ 0.129 µM); in the experiment on K pneumoniae K-1150, 0.06 µg/mL (≈ 0.129 µM); against P. aeruginosa CL 1267, 8 µg/mL (≈ 17.2 µM); with M Morganii K 1250, 0.06 µg/mL (≈ 0.129 µM); with E. coli TEM-2 (E. coli TEM-2, read-out: MIC), 0.06 µg/mL (≈ 0.129 µM); in the experiment with E. cloaacae S 480-2 it was 0.06 µg/mL (≈ 0.129 µM). In addition, the MIC was 8 µg/mL (≈ 17.2 µM) against P. aeruginosa S 1598 and 32 µg/mL (≈ 68.6 µM) in the experiment with P. aeruginosa PD 2721.

For the molecule `C[C@H]1[C@H](NC(=O)/C(=N\OCc2cc(=O)c(O)cn2O)c2csc(N)n2)C(=O)N1S(=O)(=O)[O-].[Na+]` [Example 1], the MIC is 0.13 µg/mL against C. freundii K 500; 0.13 µg/mL in the experiment with K pneumoniae K-1150; 0.06 µg/mL with P. aeruginosa CL 1267; 0.06 µg/mL with M Morganii K 1250; 0.06 µg/mL with E. coli TEM-2; 0.06 µg/mL with E. cloaacae S 480-2. The values for the MIC with P. aeruginosa S 1598 and in the experiment on P. aeruginosa PD 2721 were 0.13 µg/mL and 4 µg/mL, respectively.

Take `NC(=O)OCC1C(NC(=O)/C(=N\OCc2cc(=O)c(O)cn2O)c2csc(N)n2)C(=O)N1S(=O)(=O)[O-].[Na+]` (stereo not drawn) [Example 2, 3-[2-(2-Aminothiazol-4-yl)-(Z)-2-{(1,5-dihydroxy-4-pyridon-2-ylmethoxy)imino}-acetamido]-4-carbamoyloxymethyl-2-azetidinone-1-sulfonic acid, sodium salt]: the MIC worked out at 0.5 µg/mL against C. freundii K 500; 0.06 µg/mL with K pneumoniae K-1150; 0.06 µg/mL against P. aeruginosa CL 1267; 0.13 µg/mL against M Morganii K 1250; 0.06 µg/mL in the experiment with E. coli TEM-2; 0.25 µg/mL against E. cloaacae S 480-2. Further, the MIC amounted to 0.13 µg/mL against P. aeruginosa S 1598 and 128 µg/mL with P. aeruginosa PD 2721.

Consider `Nc1nc(/C(=N/OCc2cc(=O)c(O)cn2O)C(=O)NC2C(=O)N(S(=O)(=O)[O-])C2CF)cs1.[Na+]` (stereo not drawn) [Example 3, 3-[2-(2-Aminothiazol-4-yl)-(Z)-2-{(1,5-dihydroxy-4-pyridon-2-yl-methoxy)imino}-acetamido]-4-fluoromethyl-2-azetidinone-1-sulfonic acid, sodium salt], for which the MIC against C. freundii K 500 amounted to 0.5 µg/mL; in the experiment on K pneumoniae K-1150, 0.06 µg/mL; with P. aeruginosa CL 1267, 0.06 µg/mL; against M Morganii K 1250 it was 0.06 µg/mL; in the experiment on E. coli TEM-2 it was 0.06 µg/mL; against E. cloaacae S 480-2, 2 µg/mL. The results for the MIC with P. aeruginosa S 1598 and with P. aeruginosa PD 2721 were 0.13 µg/mL and 32 µg/mL, respectively.
